Several values for one entry are separate records, joined by “and”; a condition that tells them apart may be missing. Equal entries are not always repeated. Where two headings read alike, the source gives them in different places.
Legend:
mMC4R [1] = target: T1, mMC4R (Mus musculus, UniProt P56450); settings: antagonist, Schild analysis with agonist NDP-MSH; mean ± SEM
Experimental: (§1) Pyrrolidine bis-cyclic guanidine compounds were assessed for biological activity using the AlphaScreen cAMP kit with HEK293 cells stably expressing the mMC1R, mMC3R, mMC4R, or mMC5R, as previously described [37, 38, 39]. […] Compounds were assayed for agonist activity in a 7-point dose–response curve (10^−3 to 10^−9 M). […] The purified compounds were dissolved in DMSO at a stock concentration of 10^−1 M and assayed using HEK293 cells stably expressing the mouse MC1R, MC3R, MC4R, and MC5R using the AlphaScreen cAMP bioassay (PerkinElmer, Waltham, MA, USA) according to the manufacturer’s instructions and as previously described [37, 38, 39].
(§2) Briefly, cells 70−90% confluent were dislodged with Versene (Gibco, Waltham, MA, USA) at 37 °C and 10,000 cells/well were plated in a 384-well plate (Optiplate, PerkinElmer, Waltham, MA, USA) with 10 μL of freshly prepared stimulation buffer (1× HBSS, 5 mM HEPES, 0.5 mM IBMX, 0.1% BSA, pH = 7.4) with 0.5 μg of anti-cAMP acceptor beads per well. The cells were stimulated with the addition of 5 μL of stimulation buffer containing compound or forskolin (10^−4 M) and incubated in the dark at room temperature for 2 h. Following stimulation, streptavidin donor beads (0.5 μg) and biotinylated cAMP (0.62 μmol) were added to the wells in a green light environment with 10 μL of lysis buffer (5 mM HEPES, 0.3% Tween-20, 0.1% BSA, pH = 7.4) and the plates were incubated in the dark at room temperature for an additional 2 h. Plates were read on a Enspire (PerkinElmer, Waltham, MA, USA) Alpha plate reader using a pre-normalized assay protocol (set by the manufacturer).

mMC4R [2] = target: T1, mMC4R; assay: cell-based
Experimental: as §1, §2

mMC1R = mMC1R (Mus musculus, UniProt Q01727); assay: AlphaScreen cAMP agonist assay, HEK293 cells stably expressing mMC1R; settings: for mMC1R partial agonist efficacy bin: sigmoidal curve, efficacy <90% of NDP-MSH
Sequence of mMC1R (Q01727 whole entry): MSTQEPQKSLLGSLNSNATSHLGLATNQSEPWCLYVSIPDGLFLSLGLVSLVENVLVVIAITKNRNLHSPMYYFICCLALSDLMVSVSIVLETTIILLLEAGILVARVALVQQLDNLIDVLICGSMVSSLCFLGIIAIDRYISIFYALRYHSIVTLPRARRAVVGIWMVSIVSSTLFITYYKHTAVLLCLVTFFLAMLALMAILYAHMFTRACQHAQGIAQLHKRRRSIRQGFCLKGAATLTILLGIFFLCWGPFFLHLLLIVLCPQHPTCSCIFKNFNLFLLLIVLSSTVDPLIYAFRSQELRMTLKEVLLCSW
Experimental: as §1, §2

mMC3R = mMC3R (Mus musculus, UniProt P33033); assay: AlphaScreen cAMP agonist assay, HEK293 cells stably expressing mMC3R; settings: for fold decreased mMC3R agonist potency: relative to 2718.002; for mMC3R agonist efficacy (in words): relative to NDP-MSH, full = >90% receptor activation; for mMC3R partial agonist efficacy bin: sigmoidal curve, efficacy <90% of NDP-MSH
Sequence of mMC3R (P33033 whole entry): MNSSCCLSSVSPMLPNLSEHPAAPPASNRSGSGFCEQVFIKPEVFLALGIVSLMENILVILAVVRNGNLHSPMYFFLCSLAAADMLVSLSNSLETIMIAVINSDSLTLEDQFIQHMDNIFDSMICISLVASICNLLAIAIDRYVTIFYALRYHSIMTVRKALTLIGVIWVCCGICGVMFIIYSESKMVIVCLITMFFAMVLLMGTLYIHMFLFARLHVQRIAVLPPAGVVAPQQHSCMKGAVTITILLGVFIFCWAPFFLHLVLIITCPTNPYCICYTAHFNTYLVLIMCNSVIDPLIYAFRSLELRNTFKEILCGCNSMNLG
Experimental: as §1, §2

mMC4R [3] = target: T1, mMC4R; assay: AlphaScreen cAMP agonist assay, HEK293 cells stably expressing mMC4R; settings: for mMC4R partial agonist efficacy bin: sigmoidal curve, efficacy <90% of NDP-MSH
Experimental: as §1, §2

mMC5R = mMC5R (Mus musculus, UniProt P41149); assay: AlphaScreen cAMP agonist assay, HEK293 cells stably expressing mMC5R; settings: for mMC5R partial agonist efficacy bin: sigmoidal curve, efficacy <90% of NDP-MSH; for mMC5R percent maximal stimulatory response (compared to NDP-MSH): at 1 mM, not enough stimulation to determine EC50; for mMC5R agonist efficacy (in words): relative to NDP-MSH, full = >90% receptor activation
Sequence of mMC5R (P41149 whole entry): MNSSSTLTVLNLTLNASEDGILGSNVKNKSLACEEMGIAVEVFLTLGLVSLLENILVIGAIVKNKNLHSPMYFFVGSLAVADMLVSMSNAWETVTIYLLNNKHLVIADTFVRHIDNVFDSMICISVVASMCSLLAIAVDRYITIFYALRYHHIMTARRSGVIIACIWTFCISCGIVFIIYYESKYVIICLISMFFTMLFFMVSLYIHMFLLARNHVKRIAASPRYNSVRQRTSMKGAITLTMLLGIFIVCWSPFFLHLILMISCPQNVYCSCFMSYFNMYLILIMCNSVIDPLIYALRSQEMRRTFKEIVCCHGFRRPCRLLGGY
Experimental: as §1, §2

[4] = at 1 mM, not enough stimulation to determine EC50

T1 sequence (P56450 whole entry): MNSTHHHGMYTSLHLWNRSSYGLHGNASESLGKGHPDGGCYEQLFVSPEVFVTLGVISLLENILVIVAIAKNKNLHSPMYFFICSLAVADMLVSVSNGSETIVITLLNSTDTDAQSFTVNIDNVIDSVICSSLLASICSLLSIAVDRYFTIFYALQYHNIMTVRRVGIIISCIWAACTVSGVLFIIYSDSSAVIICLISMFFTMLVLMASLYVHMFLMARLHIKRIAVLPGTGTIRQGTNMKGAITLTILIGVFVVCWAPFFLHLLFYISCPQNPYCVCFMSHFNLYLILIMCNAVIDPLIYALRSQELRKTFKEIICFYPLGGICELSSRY

Compound	EC50 (mMC1R) [µM]	EC50 (mMC3R) [µM]	mMC4R percent maximal stimulatory response (compared to NDP-MSH) (mMC4R [3]; [4]) [% @ 1 mM]	EC50 (mMC5R) [µM]	mMC5R partial agonist efficacy bin (mMC5R)	mMC3R percent maximal stimulatory response (compared to NDP-MSH) (mMC3R; [4]) [% @ 1 mM]	also measured
CC(C)C[C@@H]1CNC(=N)N1C[C@@H]1CCCN1C[C@@H](CC1CCCCC1)N1CCN(CC2CCC(C(C)(C)C)CC2)C1=N (some centres unmarked) [Compound 2718.025]	0.51 ± 0.09	1 ± 0.3	60	0.6 ± 0.1	–	–	mMC4R pA2 (mMC4R [1]): 6.1; Kb (mMC4R [2]): 0.794 µM; fold decreased mMC3R agonist potency (mMC3R): 4 fold; mMC3R agonist efficacy (in words) (mMC3R): full agonist efficacy
CC(C)C[C@@H]1CNC(=N)N1C[C@@H]1CCCN1C[C@@H](Cc1ccccc1)N1CCN(CC2CCC(C(C)(C)C)CC2)C1=N (some centres unmarked) [Compound 2718.022]	0.4 ± 0.04	0.38 ± 0.07	–	0.32 ± 0.01	–	–	mMC4R pA2 (mMC4R [1]): 6.1; Kb (mMC4R [2]): 0.794 µM; mMC3R agonist efficacy (in words) (mMC3R): full agonist efficacy
CC(C)C[C@@H]1CNC(=N)N1C[C@@H]1CCCN1C[C@H](CC1CCCCC1)N1C[C@@H]([C@H](C)O)N(CC2CCC(C(C)(C)C)CC2)C1=N (some centres unmarked) [Compound 2718.046]	1.8 ± 0.2	9 ± 1	55	5 ± 1	–	–	fold decreased mMC1R agonist potency (mMC1R; relative to 2718.002): 7 fold; mMC3R partial agonist efficacy bin (mMC3R): B (B (51–90% receptor activation)); fold decreased mMC5R agonist potency (mMC5R; relative to 2718.002): 17 fold
CCC[C@@H]1CN([C@H](CC2CCCCC2)CN2CCC[C@H]2CN2CCNC2=N)C(=N)N1CC1CCC(C(C)(C)C)CC1 (some centres unmarked) [Compound 2718.029]	1.1 ± 0.3	3.3 ± 0.1	–	1.3 ± 0.1	–	–	mMC4R pA2 (mMC4R [1]): 5.8; Kb (mMC4R [2]): 1.58 µM; mMC3R agonist efficacy (in words) (mMC3R): full agonist efficacy; EC50 (mMC4R [3]): 2.9 ± 0.4 µM; mMC4R partial agonist efficacy bin (mMC4R [3]): B (B (51–90% receptor activation))
CCN1C(=N)N([C@H](CC2CCCCC2)CN2CCC[C@H]2CN2C(=N)NC[C@H]2CC(C)C)C[C@H]1[C@H](C)O [Compound 2718.010]	5 ± 1	> 1000	20	45.5	A (A (20–50% receptor activation))	–	mMC1R partial agonist efficacy bin (mMC1R): B (B (51–90% receptor activation))
CC(C)C[C@H]1CNC(=N)N1C[C@H]1CCCN1C[C@H](Cc1ccccc1)N1C[C@@H]([C@H](C)O)N(CC2CCC(C(C)(C)C)CC2)C1=N (some centres unmarked) [Compound 2718.044]	7 ± 2	5.6 ± 0.8	50	2.9 ± 0.9	B (B (51–90% receptor activation))	–	mMC1R partial agonist efficacy bin (mMC1R): B (B (51–90% receptor activation)); mMC3R partial agonist efficacy bin (mMC3R): A (A (20–50% receptor activation))
CCC[C@@H]1CN([C@H](CC2CCCCC2)CN2CCC[C@@H]2CN2C(=N)NC[C@H]2C(C)C)C(=N)N1CC1CCC(C(C)(C)C)CC1 (some centres unmarked) [Compound 2718.052]	2.5 ± 0.3	2.6 ± 0.1	–	2.92 ± 0.07	–	–	fold decreased mMC1R agonist potency (mMC1R; relative to 2718.003): 4 fold; mMC3R partial agonist efficacy bin (mMC3R): B (B (51–90% receptor activation)); EC50 (mMC4R [3]): 12 µM; mMC4R partial agonist efficacy bin (mMC4R [3]): B (B (51–90% receptor activation))
CCCCC(CN1CCCC1CN1C(=N)NCC1CC(C)C)N1CC(C(C)O)N(CC2CCC(C(C)(C)C)CC2)C1=N (centres unmarked) [Compound 2718.060]	2.2 ± 0.7	2.2 ± 0.2	45	1.1 ± 0.3	–	–	mMC1R partial agonist efficacy bin (mMC1R): B (B (51–90% receptor activation)); mMC3R partial agonist efficacy bin (mMC3R): B (B (51–90% receptor activation)); fold decreased mMC5R agonist potency (mMC5R; relative to 2718.002): 4 fold
CC(C)C[C@H]1CNC(=N)N1C[C@@H]1CCCN1C[C@@H](Cc1ccccc1)N1C[C@@H]([C@H](C)O)N(CC2CCC(C(C)(C)C)CC2)C1=N (some centres unmarked) [Compound 2718.033]	0.38 ± 0.04	3.8 ± 0.6	60	0.9 ± 0.3	–	–	mMC3R partial agonist efficacy bin (mMC3R): B (B (51–90% receptor activation))
CC(C)C[C@H]1CNC(=N)N1C[C@@H]1CCCN1C[C@H](Cc1ccccc1)N1C[C@@H]([C@H](C)O)N(CC2CCC(C(C)(C)C)CC2)C1=N (some centres unmarked) [Compound 2718.039]	4 ± 2	–	55	45	B (B (51–90% receptor activation))	50	mMC1R partial agonist efficacy bin (mMC1R): B (B (51–90% receptor activation))
CCC[C@@H]1CN([C@H](CC2CCCCC2)CN2CCC[C@H]2CN2C(=N)NC[C@@H]2C(C)C)C(=N)N1CC1CCC(C(C)(C)C)CC1 (some centres unmarked) [Compound 2718.053]	1 ± 0.3	2.4 ± 0.2	60	2.4 ± 0.3	–	–	Kb (mMC4R [2]): 1.26 µM; mMC3R agonist efficacy (in words) (mMC3R): full agonist efficacy
CC(C)C[C@@H]1CNC(=N)N1C[C@@H]1CCCN1CCN1C[C@@H]([C@H](C)O)N(CC2CCC(C(C)(C)C)CC2)C1=N (some centres unmarked) [Compound 2718.023]	–	–	–	–	–	30	mMC1R percent maximal stimulatory response (compared to NDP-MSH) (mMC1R; [4]): 85% @ 1 mM; EC50 (mMC4R [3]): 40 µM; mMC4R partial agonist efficacy bin (mMC4R [3]): A (A (20–50% receptor activation)); mMC5R percent maximal stimulatory response (compared to NDP-MSH) (mMC5R): 80% @ 1 mM
CC(C)C[C@H]1CNC(=N)N1C[C@H]1CCCN1C[C@@H](Cc1ccccc1)N1C[C@H]([C@@H](C)O)N(CC2CCC(C(C)(C)C)CC2)C1=N (some centres unmarked) [Compound 2718.043]	3.5 ± 0.2	–	55	8 ± 2	B (B (51–90% receptor activation))	55	mMC1R partial agonist efficacy bin (mMC1R): B (B (51–90% receptor activation))
CC(C)CC1CNC(=N)N1CC1CCCN1CC(C)N1CC(C(C)O)N(CC2CCC(C(C)(C)C)CC2)C1=N (centres unmarked) [Compound 2718.061]	–	–	–	–	–	20	mMC1R percent maximal stimulatory response (compared to NDP-MSH) (mMC1R; [4]): 65% @ 1 mM; EC50 (mMC4R [3]): > 1000 µM; mMC5R percent maximal stimulatory response (compared to NDP-MSH) (mMC5R): 65% @ 1 mM
CC(C)C[C@@H]1CNC(=N)N1C[C@@H]1CCCN1C[C@@H](Cc1ccccc1)N1C[C@H]([C@@H](C)O)N(CC2CCC(C(C)(C)C)CC2)C1=N (some centres unmarked) [Compound 2718.030]	4 ± 2	–	60	5 ± 2	B (B (51–90% receptor activation))	50	mMC1R partial agonist efficacy bin (mMC1R): B (B (51–90% receptor activation))
CC(C)C[C@H]1CNC(=N)N1C[C@H]1CCCN1C[C@H](Cc1ccccc1)N1C[C@H]([C@@H](C)O)N(CC2CCC(C(C)(C)C)CC2)C1=N (some centres unmarked) [Compound 2718.034]	–	–	55	3 ± 1	–	50	mMC1R percent maximal stimulatory response (compared to NDP-MSH) (mMC1R; [4]): 75% @ 1 mM; fold decreased mMC5R agonist potency (mMC5R; relative to 2718.001): 12 fold
C[C@H](O)[C@@H]1CN([C@H](CC2CCCCC2)CN2CCC[C@H]2CN2CCNC2=N)C(=N)N1CC1CCC(C(C)(C)C)CC1 (some centres unmarked) [Compound 2718.026]	0.46 ± 0.03	2.6 ± 0.2	–	0.3 ± 0.01	–	–	mMC4R pA2 (mMC4R [1]): 6.2; Kb (mMC4R [2]): 0.631 µM; fold decreased mMC3R agonist potency (mMC3R): 11 fold and 10 fold; mMC3R agonist efficacy (in words) (mMC3R): full agonist efficacy; EC50 (mMC4R [3]): 1.8 ± 0.5 µM; mMC4R partial agonist efficacy bin (mMC4R [3]): A (A (20–50% receptor activation))
CC(O)C1CNC(=N)N1CC1CCC(C(C)(C)C)CC1 (centres unmarked) [Compound 2718.020]	–	–	55	140	–	70	mMC1R percent maximal stimulatory response (compared to NDP-MSH) (mMC1R; [4]): 70% @ 1 mM; mMC5R agonist efficacy (in words) (mMC5R): fully activate
CC(C)C[C@@H]1CNC(=N)N1C[C@H]1CCCN1C[C@H](Cc1ccccc1)N1C[C@H]([C@@H](C)O)N(CC2CCC(C(C)(C)C)CC2)C1=N (some centres unmarked) [Compound 2718.041]	40	–	60	8 ± 1	B (B (51–90% receptor activation))	60	fold decreased mMC1R agonist potency (mMC1R; relative to 2718.001): 125 fold
CC(C)C[C@@H]1CNC(=N)N1C[C@@H]1CCCN1C[C@H](Cc1ccccc1)N1C[C@H]([C@@H](C)O)N(CC2CCC(C(C)(C)C)CC2)C1=N (some centres unmarked) [Compound 2718.035]	3.7 ± 0.7	–	55	23	B (B (51–90% receptor activation))	55	fold decreased mMC1R agonist potency (mMC1R; relative to 2718.001): 12 fold
CC(C)[C@@H]1CNC(=N)N1C[C@@H]1CCCN1C[C@@H](CC1CCCCC1)N1CCN(CC2CCC(C(C)(C)C)CC2)C1=N (some centres unmarked) [Compound 2718.027]	0.34 ± 0.03	2.1 ± 0.2	45	0.51 ± 0.07	–	–	Kb (mMC4R [2]): 0.631 µM; mMC3R agonist efficacy (in words) (mMC3R): full agonist efficacy
CCCCC1CNC(=N)N1CC1CCC(C(C)(C)C)CC1 (centres unmarked) [Compound 2718.021]	–	–	–	–	–	–	mMC1R percent maximal stimulatory response (compared to NDP-MSH) (mMC1R; at 100 µM): 80% @ 100 µM; mMC3R percent maximal stimulatory response (compared to NDP-MSH) (mMC3R; at 100 µM): 50% @ 100 µM; mMC4R percent maximal stimulatory response (compared to NDP-MSH) (mMC4R [3]; at 100 µM): 50% @ 100 µM; EC50 (mMC5R; read-out: mMC5R EC50, agonist, mean ± SEM, at least three independent experiments, >1,000,000 = no agonist activity up to 1 mM): 17 µM; fold decreased mMC5R agonist potency (mMC5R; relative to 2718.003): 14 fold; mMC5R agonist efficacy (in words) (mMC5R): fully activate

Reference: paper PMC10299128, “The Parallel Structure–Activity Relationship Screening of Three Compounds Identifies the Common Agonist Pharmacophore of Pyrrolidine Bis-Cyclic Guanidine Melanocortin-3 Receptor (MC3R) Small-Molecule Ligands” (International Journal of Molecular Sciences, 2023)
